The text below walks through data of the Deep4Chem optical property database.

The nature of the data set: solvent given as SMILES.

Several values for one entry are separate records, joined by “and”; a condition that tells them apart may be missing. Identical values can stand only once.

As to `CCCCCCc1cc2c3c(c1)c(=C1c4ccccc4Sc4ccccc41)c1cc(CCCCCC)cc4c1N3c1c(cc(CCCCCC)cc1c4=C1c3ccccc3Sc3ccccc31)c2=C1c2ccccc2Sc2ccccc21`, the emission maximum (in ClCCl) was found to be 498 nm.
For `c1ccc(-c2cc(-c3ccccc3)[o+]c(-c3ccccc3)c2)cc1`, the emission maximum by setting is: (in CC#N) 465 nm; (in ClCCCl) 463 nm.
Turning to `COc1ccc(-c2c3ccccc3c(C#Cc3ccccc3)c3cc4cc(C)sc4cc23)cc1`, where the note is “in ClCCl”, the emission maximum worked out at 504 nm.
In the case of `Oc1ccccc1-c1nc(-c2ccccc2)c2ccccn12`, the emission maximum is, setting by setting: (in C1CCCCC1) 479 nm; (in CC#N) 480 nm; (in CO) 474 nm; (in ClCCl) 484 nm; (in O) 481 nm.
Compound `Cc1ccc(-n2c(-c3ccccc3N)nc3c4ccccc4c4ccccc4c32)cc1` had an emission maximum (in Cc1ccccc1) of 396 nm.
`CC1=[N+]2C(=C(c3ccc(Br)cc3)c3ccc(C)n3[B-]2(F)F)C=C1c1cc2n(c1)[B-](F)(F)[N+]1=CC=CC1=C2c1c(C)cc(C)cc1C`: the emission maximum reads like this: (in C1CCCCC1) 642 nm; (in CCOC(C)=O) 670 nm.
For `COc1cc(-c2nc3c4cccnc4c4ncccc4c3[nH]2)c(OC)cc1/C=C/c1nc2ccccc2[nH]1`, the emission maximum reads like this: (in C1CCOC1) 443 nm; (in CC#N) 457 nm; (in CO) 461 nm; (in ClCCl) 452 nm.
`C[SiH]1c2ccccc2-c2cc3c(cc21)-c1ccccc1[SiH]3C` (centres undefined) displayed an emission maximum (in ClCCl) of 389 nm.
On to `CC[n+]1nc2cc3c4c(c2c2cc(C)ccc21)CCCN4CCC3`, for which, under “in O”, the emission maximum worked out at 571 nm.
`CCCCn1c2ccccc2c2ccc3c4cc(-c5cccc(F)c5)ccc4n(CCCC)c3c21` returned an emission maximum (in ClC(Cl)Cl) of 398 nm.
In the case of `CN(C)c1ccc(/C=C/c2nc(/C=C/c3ccc(N(C)C)cc3)c3ccccc3n2)cc1`, the emission maximum runs as follows: (in C1CCCCC1) 503 nm; (in C1CCOC1) 540 nm; (in CC#N) 570 nm; (in CS(C)=O) 580 nm; (in ClCCl) 545 nm.
On to `COc1ccccc1C1=[N+]2C(=C(c3ccc(I)cc3)c3ccc(-c4ccccc4OC)n3[B-]2(F)F)C=C1`, for which, for the setting “in ClC(Cl)Cl”, the emission maximum was 598 nm and 597 nm.
Regarding `CC(C)c1cccc(C(C)C)c1N1C(=O)c2ccc3c(-c4ccccc4)c4c5ccc6c7c(ccc(c(-c8ccccc8)c4c4ccc(c2c34)C1=O)c75)C(=O)N(c1c(C(C)C)cccc1C(C)C)C6=O`, under “in ClCCl”, the emission maximum is listed as 702 nm.
As for `CCN1c2ccc(/C=N/Nc3ccccn3)cc2Sc2cc(-c3cccc4ccccc34)ccc21`, the emission maximum is, setting by setting: (in C1CCOC1) 487 nm; (in CS(C)=O) 498 nm; (in Cc1ccccc1) 482 nm; (in ClCCl) 491 nm.
Where the note is “in Cc1ccccc1”, `Cc1ccc2c(c1)c1cc(C)ccc1n2-c1c(C#N)c(-n2c3ccc(C)cc3c3cc(C)ccc32)c(-n2c3ccc(C)cc3c3cc(C)ccc32)c(C#N)c1-n1c2ccc(C)cc2c2cc(C)ccc21` displayed an emission maximum of 561 nm.
In the case of `CCCCCCCCCCCCOc1cc2c3cc(OCCCCCCCCCCCC)c(OCCCCCCCCCCCC)cc3c3c(cc(OCCCCCCCCCCCC)c4nc5cc(C#Cc6ccc(OCCC(C)CCCC(C)C)cc6)c(C#Cc6ccc(OCCC(C)CCCC(C)C)cc6)cc5nc43)c2cc1OCCCCCCCCCCCC` (centres undefined), the emission maximum (in ClC(Cl)Cl) was found to be 660 nm.
Turning to `Cc1ccc2c(c1)C(c1ccccc1)(c1ccccc1)c1cc(C)ccc1N2c1cc(C(C)C)c(B2c3ccccc3Sc3ccccc32)c(C(C)C)c1`, the emission maximum by setting is: (in Cc1ccccc1) 487 nm; (in O=P(c1ccccc1)(c1ccccc1)c1ccc2oc3ccc(P(=O)(c4ccccc4)c4ccccc4)cc3c2c1) 485 nm.
Compound `O=Cc1ccc(-c2cccc(-c3nc4ccccc4s3)c2O)s1` came in with an emission maximum (in CCO) of 576 nm, an emission maximum (in ClCCl) of 566 nm and an emission maximum (in O) of 595 nm.
`CC1=[N+]2C(=C(NC(C)c3ccccc3)c3ccc(C)n3[B-]2(F)F)C=C1c1cc2n(c1)[B-](F)(F)[N+]1=CC=CC1=C2c1c(C)cc(C)cc1C` (centres undefined): the emission maximum worked out at 640 nm (in C1CCCCC1) and 700 nm (in CCOC(C)=O).
